The values below come from PubChem BioAssay AID743111 (Vanderbilt Specialized Chemistry Center, 2013).

Calls of active or inactive are those of the source.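 How the source made its calls: active means response above 60% of the acetylcholine maximum at the M5 muscarinic receptor, read as positive allosteric modulation; inactive means the rest.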

The target of this experiment is Muscarinic acetylcholine receptor M5 (Rattus norvegicus) (UniProt P08911). Kind of experiment: potentiation of ACh response at rat M5 – cell-based, rat ortholog, CHO-K1, calcium flux, ACh EC20, selectivity assay for M5 PAM project, dose response (AID 743111). Particulars: CHO-K1 rat M5, Fluo-4 calcium flux; for % ACh max response: at 30 µM (top of the series).
Chain of Muscarinic acetylcholine receptor M5 (Rattus norvegicus) (P08911 whole entry, looked up): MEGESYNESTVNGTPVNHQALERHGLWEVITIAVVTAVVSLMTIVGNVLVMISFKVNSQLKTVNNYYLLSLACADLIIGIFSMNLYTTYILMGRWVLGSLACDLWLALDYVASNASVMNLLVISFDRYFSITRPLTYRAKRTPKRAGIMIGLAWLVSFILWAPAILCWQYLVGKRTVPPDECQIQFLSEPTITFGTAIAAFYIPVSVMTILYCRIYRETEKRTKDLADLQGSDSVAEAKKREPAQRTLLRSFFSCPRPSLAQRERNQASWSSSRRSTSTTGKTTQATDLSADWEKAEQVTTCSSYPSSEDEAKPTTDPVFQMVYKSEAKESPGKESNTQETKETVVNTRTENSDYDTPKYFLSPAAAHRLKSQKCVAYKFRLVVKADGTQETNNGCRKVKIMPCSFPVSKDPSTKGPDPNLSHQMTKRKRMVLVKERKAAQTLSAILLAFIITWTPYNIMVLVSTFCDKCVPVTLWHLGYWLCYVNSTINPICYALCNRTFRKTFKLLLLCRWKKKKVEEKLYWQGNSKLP

Consider `CCN(Cc1ccccc1C(F)(F)F)C(=O)C1CCN(S(=O)(=O)c2ccc3[nH]ncc3c2)CC1`, for which the EC50 (usually the concentration needed to bring the measured effect to its halfway point) is 540 nM. `CCN(C(=O)C1CCN(S(=O)(=O)c2ccc(-n3cccn3)cc2)CC1)[C@H](C)c1ccccc1`: the EC50 is 1200 nM.

In the case of `CCN(Cc1ccccc1C(F)(F)F)C(=O)C1CCN(S(=O)(=O)c2ccc3cn[nH]c3c2)CC1`, the EC50 was 1200 nM. Regarding `CCN(C(=O)C1CCN(S(=O)(=O)c2ccc(OC)cc2)CC1)[C@H](C)c1ccccc1`, the EC50 was 1570 nM. Turning to `CCN(Cc1ccccc1)C(=O)C1CCN(S(=O)(=O)c2ccc(OC)cc2)CC1`, the “% ACh max response” value is “inactive”. On to `CCN(C(=O)C1CCN(S(=O)(=O)c2ccc3[nH]ncc3c2)CC1)[C@H](C)c1ccccc1`, for which the EC50 is 640 nM. Turning to `CCN(C(=O)C1CCN(S(=O)(=O)c2ccc3cn[nH]c3c2)CC1)[C@H](C)c1ccccc1`, the EC50 is 860 nM. Same read-out and setting: as for `CCN(Cc1ccccc1C(F)(F)F)C(=O)C1(F)CCN(S(=O)(=O)c2ccc3[nH]ncc3c2)CC1`, the figure is 710 nM; as for `CCN(Cc1ccccc1)C(=O)C1CCN(S(=O)(=O)c2ccc3cn[nH]c3c2)CC1`, 1950 nM.

With `CCN(Cc1ccccc1Cl)C(=O)C1CCN(S(=O)(=O)c2ccc3[nH]ncc3c2)CC1`, the 50% effective concentration (EC50) was 300 nM.

With `CCN(Cc1ccccc1)C(=O)C1CCN(S(=O)(=O)c2ccc3c(c2)OCCO3)CC1`, the “% ACh max response” value is “inactive”.

On to `CCN(Cc1ccccc1)C(=O)C1CCN(S(=O)(=O)c2ccc3[nH]ncc3c2)CC1`, for which the EC50 is 1450 nM. The same measure, in the same setting: as for `CCCN(Cc1ccccc1C(F)(F)F)C(=O)C1CCN(S(=O)(=O)c2ccc3[nH]ncc3c2)CC1`, the figure is 320 nM.
